In the NIST ThermoML archive (doi:10.1016/j.fluid.2006.03.015):
± gives the expanded uncertainty stated by the source.

Assay: molar heat capacity at constant pressure
Settings: 101.33 kPa, Liquid, Small sample (50 mg) DSC

## C1CCOC1 [tetrahydrofuran]
180.15 K
  molar heat capacity at constant pressure: 105.5 ± 5.5 J/K/mol
185.15 K
  molar heat capacity at constant pressure: 105.6 ± 5.5 J/K/mol
190.15 K
  molar heat capacity at constant pressure: 105.8 ± 5.5 J/K/mol
195.15 K
  molar heat capacity at constant pressure: 106 ± 5.5 J/K/mol
200.15 K
  molar heat capacity at constant pressure: 106.3 ± 5.5 J/K/mol
205.15 K
  molar heat capacity at constant pressure: 106.5 ± 5.5 J/K/mol
210.15 K
  molar heat capacity at constant pressure: 106.7 ± 5.5 J/K/mol
215.15 K
  molar heat capacity at constant pressure: 107.2 ± 5.6 J/K/mol
220.15 K
  molar heat capacity at constant pressure: 107.6 ± 5.6 J/K/mol
225.15 K
  molar heat capacity at constant pressure: 107.9 ± 5.6 J/K/mol
230.15 K
  molar heat capacity at constant pressure: 108.5 ± 5.6 J/K/mol
235.15 K
  molar heat capacity at constant pressure: 109.2 ± 5.7 J/K/mol
240.15 K
  molar heat capacity at constant pressure: 109.8 ± 5.7 J/K/mol
245.15 K
  molar heat capacity at constant pressure: 110.6 ± 5.7 J/K/mol
250.15 K
  molar heat capacity at constant pressure: 111.5 ± 5.8 J/K/mol
255.15 K
  molar heat capacity at constant pressure: 112.4 ± 5.8 J/K/mol
260.15 K
  molar heat capacity at constant pressure: 113.4 ± 5.9 J/K/mol
265.15 K
  molar heat capacity at constant pressure: 114.4 ± 5.9 J/K/mol
270.15 K
  molar heat capacity at constant pressure: 115.5 ± 6 J/K/mol
275.15 K
  molar heat capacity at constant pressure: 116.6 ± 6.1 J/K/mol
280.15 K
  molar heat capacity at constant pressure: 117.9 ± 6.1 J/K/mol
285.15 K
  molar heat capacity at constant pressure: 119.2 ± 6.2 J/K/mol
290.15 K
  molar heat capacity at constant pressure: 120.3 ± 6.3 J/K/mol
295.15 K
  molar heat capacity at constant pressure: 121.7 ± 6.3 J/K/mol
300.15 K
  molar heat capacity at constant pressure: 123.1 ± 6.4 J/K/mol
305.15 K
  molar heat capacity at constant pressure: 124.5 ± 6.5 J/K/mol
310.15 K
  molar heat capacity at constant pressure: 126 ± 6.5 J/K/mol
315.15 K
  molar heat capacity at constant pressure: 127.3 ± 6.6 J/K/mol
320.15 K
  molar heat capacity at constant pressure: 128.8 ± 6.7 J/K/mol
325.15 K
  molar heat capacity at constant pressure: 130.5 ± 6.8 J/K/mol

## O [water]
305.15 K
  molar heat capacity at constant pressure: 74.95 ± 3.9 J/K/mol
310.15 K
  molar heat capacity at constant pressure: 74.96 ± 3.9 J/K/mol
315.15 K
  molar heat capacity at constant pressure: 74.9 ± 3.9 J/K/mol
320.15 K
  molar heat capacity at constant pressure: 74.93 ± 3.9 J/K/mol
325.15 K
  molar heat capacity at constant pressure: 75.01 ± 3.9 J/K/mol
330.15 K
  molar heat capacity at constant pressure: 75.09 ± 3.9 J/K/mol
335.15 K
  molar heat capacity at constant pressure: 75.11 ± 3.9 J/K/mol
340.15 K
  molar heat capacity at constant pressure: 75.23 ± 3.9 J/K/mol
345.15 K
  molar heat capacity at constant pressure: 75.31 ± 3.9 J/K/mol
350.15 K
  molar heat capacity at constant pressure: 75.43 ± 3.9 J/K/mol
355.15 K
  molar heat capacity at constant pressure: 75.53 ± 3.9 J/K/mol
360.15 K
  molar heat capacity at constant pressure: 75.59 ± 3.9 J/K/mol
365.15 K
  molar heat capacity at constant pressure: 75.72 ± 3.9 J/K/mol
370.15 K
  molar heat capacity at constant pressure: 75.8 ± 3.9 J/K/mol
